Reference: publication PMC11864979, “First-in-class ultralong-target-residence-time p38α inhibitors as a mitosis-targeted therapy for colorectal cancer” (Nature Cancer, 2025)
Where two headings read alike, the source gives them in different places.

Key:
Test in all cases: selectivity profiling in a panel of 340 wild-type kinases (Reaction Biology Europe)
Type in all cases: binding
[1] = target: T1, 340 wild-type kinases (Homo sapiens, UniProt P33981)
T1 construct: purchased Reaction Biology Europe
T1 sequence (P33981 1-857): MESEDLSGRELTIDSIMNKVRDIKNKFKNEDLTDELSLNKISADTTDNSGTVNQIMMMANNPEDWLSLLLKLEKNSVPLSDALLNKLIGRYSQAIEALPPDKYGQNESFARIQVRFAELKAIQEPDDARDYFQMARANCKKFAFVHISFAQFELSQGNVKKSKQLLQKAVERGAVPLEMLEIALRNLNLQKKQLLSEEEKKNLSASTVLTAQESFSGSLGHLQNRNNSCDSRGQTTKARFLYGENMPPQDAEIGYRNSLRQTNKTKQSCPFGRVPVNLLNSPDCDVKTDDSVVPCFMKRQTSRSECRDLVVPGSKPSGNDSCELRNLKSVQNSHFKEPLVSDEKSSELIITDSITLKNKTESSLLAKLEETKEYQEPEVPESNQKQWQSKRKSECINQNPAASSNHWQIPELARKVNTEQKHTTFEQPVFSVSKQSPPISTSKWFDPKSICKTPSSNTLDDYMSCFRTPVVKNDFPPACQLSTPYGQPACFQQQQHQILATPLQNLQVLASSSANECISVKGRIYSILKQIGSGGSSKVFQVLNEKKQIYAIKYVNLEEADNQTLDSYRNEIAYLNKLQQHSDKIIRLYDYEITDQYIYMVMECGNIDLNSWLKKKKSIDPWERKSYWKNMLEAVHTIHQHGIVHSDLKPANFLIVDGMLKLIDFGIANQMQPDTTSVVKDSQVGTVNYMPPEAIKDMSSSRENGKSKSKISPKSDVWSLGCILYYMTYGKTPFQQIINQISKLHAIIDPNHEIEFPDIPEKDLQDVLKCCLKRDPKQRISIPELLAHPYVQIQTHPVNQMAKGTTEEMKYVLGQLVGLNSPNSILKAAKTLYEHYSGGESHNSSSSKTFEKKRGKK

[2] = target: T2, 340 wild-type kinases (Homo sapiens, UniProt Q04771)
T2 construct: purchased Reaction Biology Europe
T2 sequence (Q04771 21-509): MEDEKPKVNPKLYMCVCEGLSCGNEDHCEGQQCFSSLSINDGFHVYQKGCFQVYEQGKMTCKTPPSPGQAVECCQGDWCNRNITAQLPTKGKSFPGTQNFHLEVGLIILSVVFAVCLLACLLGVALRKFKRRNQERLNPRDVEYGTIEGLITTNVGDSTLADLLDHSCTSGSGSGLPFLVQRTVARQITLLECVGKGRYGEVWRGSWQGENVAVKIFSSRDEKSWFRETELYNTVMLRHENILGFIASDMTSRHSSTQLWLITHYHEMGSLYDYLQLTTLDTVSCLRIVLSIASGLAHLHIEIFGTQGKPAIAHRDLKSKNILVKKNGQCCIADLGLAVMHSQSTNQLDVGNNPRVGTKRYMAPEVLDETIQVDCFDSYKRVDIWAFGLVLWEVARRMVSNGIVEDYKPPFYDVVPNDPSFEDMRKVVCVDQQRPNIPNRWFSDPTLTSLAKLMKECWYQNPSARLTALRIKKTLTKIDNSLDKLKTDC

[3] = target: T3, 340 wild-type kinases (Homo sapiens, UniProt O00506)
T3 construct: purchased Reaction Biology Europe

[4] = target: T4, 340 wild-type kinases (Homo sapiens, UniProt Q6P5Z2)
T4 construct: purchased Reaction Biology Europe

[5] = target: T5, 340 wild-type kinases (Homo sapiens, UniProt Q14289)
T5 construct: purchased Reaction Biology Europe

[6] = target: T6, 340 wild-type kinases (Homo sapiens, UniProt P34947)
T6 construct: purchased Reaction Biology Europe

[7] = target: T7, 340 wild-type kinases (Homo sapiens, UniProt Q9NYL2)
T7 construct: purchased Reaction Biology Europe

[8] = target: T8, 340 wild-type kinases (Homo sapiens, UniProt O75676)
T8 construct: purchased Reaction Biology Europe
T8 sequence (O75676 whole entry): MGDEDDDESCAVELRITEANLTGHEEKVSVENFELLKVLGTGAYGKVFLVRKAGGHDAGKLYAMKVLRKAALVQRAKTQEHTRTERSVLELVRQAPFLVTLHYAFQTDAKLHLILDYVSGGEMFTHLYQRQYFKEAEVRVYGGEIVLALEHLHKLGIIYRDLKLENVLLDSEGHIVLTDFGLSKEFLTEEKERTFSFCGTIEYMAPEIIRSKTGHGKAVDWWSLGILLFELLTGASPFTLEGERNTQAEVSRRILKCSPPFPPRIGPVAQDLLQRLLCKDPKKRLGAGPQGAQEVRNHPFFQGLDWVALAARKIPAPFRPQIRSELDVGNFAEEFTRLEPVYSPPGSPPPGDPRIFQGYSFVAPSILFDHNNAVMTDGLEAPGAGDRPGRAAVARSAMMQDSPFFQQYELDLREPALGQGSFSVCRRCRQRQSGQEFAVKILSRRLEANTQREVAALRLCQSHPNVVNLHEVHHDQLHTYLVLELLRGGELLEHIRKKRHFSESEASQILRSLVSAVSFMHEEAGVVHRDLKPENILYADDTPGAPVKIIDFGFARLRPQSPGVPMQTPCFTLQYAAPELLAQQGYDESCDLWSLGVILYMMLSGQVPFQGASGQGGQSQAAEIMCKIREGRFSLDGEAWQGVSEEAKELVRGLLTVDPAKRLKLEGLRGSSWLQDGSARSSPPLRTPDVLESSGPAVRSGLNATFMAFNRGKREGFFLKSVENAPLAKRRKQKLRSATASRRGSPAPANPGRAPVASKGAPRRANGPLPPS

T4 sequence (Q6P5Z2 whole entry): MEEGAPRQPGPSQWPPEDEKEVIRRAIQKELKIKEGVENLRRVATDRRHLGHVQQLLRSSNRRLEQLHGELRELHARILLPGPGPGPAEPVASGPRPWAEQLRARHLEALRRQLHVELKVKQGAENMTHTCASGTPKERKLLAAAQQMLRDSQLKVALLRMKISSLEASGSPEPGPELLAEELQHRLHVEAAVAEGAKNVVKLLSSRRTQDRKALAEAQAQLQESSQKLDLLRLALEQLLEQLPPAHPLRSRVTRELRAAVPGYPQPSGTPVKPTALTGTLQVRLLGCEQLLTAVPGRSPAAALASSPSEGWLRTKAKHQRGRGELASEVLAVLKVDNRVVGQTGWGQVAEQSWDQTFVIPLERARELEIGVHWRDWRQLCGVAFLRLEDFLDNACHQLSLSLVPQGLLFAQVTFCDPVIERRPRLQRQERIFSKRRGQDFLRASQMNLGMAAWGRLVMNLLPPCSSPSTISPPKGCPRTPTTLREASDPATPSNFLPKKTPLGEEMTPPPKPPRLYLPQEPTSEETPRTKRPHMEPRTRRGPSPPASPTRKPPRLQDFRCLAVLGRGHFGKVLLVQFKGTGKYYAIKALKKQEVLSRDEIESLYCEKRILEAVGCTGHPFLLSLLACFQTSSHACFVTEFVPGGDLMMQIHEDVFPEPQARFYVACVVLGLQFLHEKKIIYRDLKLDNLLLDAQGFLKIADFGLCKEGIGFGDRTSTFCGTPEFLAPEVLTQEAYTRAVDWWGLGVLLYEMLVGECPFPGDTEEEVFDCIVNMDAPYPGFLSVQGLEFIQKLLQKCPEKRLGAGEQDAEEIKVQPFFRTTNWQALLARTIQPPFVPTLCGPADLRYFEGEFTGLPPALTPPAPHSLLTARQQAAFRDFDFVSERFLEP
T7 sequence (Q9NYL2 whole entry): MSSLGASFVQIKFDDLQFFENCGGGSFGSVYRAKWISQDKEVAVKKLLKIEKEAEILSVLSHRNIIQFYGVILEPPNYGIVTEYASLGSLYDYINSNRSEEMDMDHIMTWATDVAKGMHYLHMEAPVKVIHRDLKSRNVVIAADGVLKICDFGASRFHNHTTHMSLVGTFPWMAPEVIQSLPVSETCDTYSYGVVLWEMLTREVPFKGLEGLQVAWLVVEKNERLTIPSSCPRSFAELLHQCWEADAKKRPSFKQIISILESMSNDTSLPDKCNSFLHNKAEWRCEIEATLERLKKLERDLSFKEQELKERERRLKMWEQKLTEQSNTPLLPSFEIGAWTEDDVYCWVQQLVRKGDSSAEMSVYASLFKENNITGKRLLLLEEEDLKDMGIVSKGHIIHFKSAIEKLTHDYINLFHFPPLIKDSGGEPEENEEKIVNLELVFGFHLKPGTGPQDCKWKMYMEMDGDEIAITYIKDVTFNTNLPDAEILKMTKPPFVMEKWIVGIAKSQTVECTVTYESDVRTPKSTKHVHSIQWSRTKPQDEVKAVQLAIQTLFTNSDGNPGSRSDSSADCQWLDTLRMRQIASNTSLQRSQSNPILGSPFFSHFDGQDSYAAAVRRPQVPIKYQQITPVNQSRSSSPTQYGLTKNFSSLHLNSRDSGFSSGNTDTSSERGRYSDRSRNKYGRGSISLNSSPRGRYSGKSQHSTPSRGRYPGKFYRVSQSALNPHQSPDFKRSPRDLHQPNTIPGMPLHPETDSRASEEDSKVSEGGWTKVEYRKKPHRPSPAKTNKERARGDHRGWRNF
T5 sequence (Q14289 whole entry): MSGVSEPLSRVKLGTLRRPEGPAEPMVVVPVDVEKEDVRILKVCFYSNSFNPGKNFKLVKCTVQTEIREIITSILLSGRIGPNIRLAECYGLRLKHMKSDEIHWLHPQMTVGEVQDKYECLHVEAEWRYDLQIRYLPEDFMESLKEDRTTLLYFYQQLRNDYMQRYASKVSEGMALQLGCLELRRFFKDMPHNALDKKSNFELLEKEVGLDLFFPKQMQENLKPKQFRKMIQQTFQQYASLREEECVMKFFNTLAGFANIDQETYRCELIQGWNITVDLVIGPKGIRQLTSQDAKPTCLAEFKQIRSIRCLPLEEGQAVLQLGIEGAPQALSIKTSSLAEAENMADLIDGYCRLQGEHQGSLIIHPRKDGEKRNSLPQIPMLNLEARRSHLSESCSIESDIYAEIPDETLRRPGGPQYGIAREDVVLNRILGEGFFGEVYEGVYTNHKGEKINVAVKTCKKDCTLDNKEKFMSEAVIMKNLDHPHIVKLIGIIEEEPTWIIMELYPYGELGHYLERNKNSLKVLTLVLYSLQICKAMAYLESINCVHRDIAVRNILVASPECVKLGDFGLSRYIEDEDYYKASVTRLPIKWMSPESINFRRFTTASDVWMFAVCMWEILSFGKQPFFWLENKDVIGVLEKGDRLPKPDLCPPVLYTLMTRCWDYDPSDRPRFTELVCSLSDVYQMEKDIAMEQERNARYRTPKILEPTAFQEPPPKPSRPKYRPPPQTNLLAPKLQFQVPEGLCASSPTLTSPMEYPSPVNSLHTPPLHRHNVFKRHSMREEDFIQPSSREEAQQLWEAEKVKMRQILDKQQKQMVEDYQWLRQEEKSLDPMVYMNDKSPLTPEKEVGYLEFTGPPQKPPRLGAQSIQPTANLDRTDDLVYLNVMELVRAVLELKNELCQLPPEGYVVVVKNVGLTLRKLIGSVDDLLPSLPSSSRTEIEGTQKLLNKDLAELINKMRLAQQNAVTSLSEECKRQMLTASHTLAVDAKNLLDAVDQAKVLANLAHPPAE
T6 sequence (P34947 whole entry): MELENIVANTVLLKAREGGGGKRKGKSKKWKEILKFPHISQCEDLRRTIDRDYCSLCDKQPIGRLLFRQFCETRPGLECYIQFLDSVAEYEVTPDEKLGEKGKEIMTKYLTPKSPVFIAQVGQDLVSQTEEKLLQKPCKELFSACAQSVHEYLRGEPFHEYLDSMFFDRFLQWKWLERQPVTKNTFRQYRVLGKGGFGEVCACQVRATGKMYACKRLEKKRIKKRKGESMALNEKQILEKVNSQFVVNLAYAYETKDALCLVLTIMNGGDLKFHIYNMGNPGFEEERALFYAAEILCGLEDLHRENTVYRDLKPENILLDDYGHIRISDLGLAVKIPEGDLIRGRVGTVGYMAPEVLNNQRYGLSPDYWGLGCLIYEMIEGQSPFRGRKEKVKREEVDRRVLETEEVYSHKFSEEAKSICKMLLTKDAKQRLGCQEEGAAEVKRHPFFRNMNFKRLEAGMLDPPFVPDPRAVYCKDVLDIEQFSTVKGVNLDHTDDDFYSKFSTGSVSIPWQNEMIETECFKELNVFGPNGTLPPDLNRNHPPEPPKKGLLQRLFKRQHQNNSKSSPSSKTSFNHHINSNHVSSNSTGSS
T3 sequence (O00506 whole entry): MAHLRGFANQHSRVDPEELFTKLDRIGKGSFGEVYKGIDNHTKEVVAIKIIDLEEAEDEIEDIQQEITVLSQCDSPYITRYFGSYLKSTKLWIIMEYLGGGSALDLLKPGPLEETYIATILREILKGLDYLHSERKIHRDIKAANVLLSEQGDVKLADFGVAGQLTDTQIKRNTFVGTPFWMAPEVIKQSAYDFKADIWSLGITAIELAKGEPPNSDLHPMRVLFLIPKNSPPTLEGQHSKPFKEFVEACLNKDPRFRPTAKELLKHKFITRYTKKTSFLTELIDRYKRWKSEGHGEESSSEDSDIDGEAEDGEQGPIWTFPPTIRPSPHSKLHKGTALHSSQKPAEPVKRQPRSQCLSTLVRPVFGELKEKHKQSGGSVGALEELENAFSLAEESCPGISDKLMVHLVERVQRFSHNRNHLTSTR

CNC(=O)c1ccc2c(c1)C(=O)c1ccc(Nc3ccc(F)c(NC(=O)C4CC4)c3)cc1CC2 [Compound 2015]
remaining activity at 0.2 µM ([1]; 0.2 µM 2015, read-out: TTK residual activity): 95.3%
remaining activity at 1 µM ([1]; 1 µM 2015, read-out: TTK residual activity): 90.4%
remaining activity at 0.2 µM ([1]; TTK, 0.2 µM, read-out: residual activity): 95.3%
remaining activity at 1 µM ([1]; TTK, 1 µM, read-out: residual activity): 90.4%
remaining activity at 0.2 µM ([2]; 0.2 µM 2015, read-out: ACVR1 residual activity): 88.7%
remaining activity at 1 µM ([2]; 1 µM 2015, read-out: ACVR1 residual activity): 96.8%
remaining activity at 0.2 µM ([2]; ACVR1, 0.2 µM, read-out: residual activity): 88.7%
remaining activity at 1 µM ([2]; ACVR1, 1 µM, read-out: residual activity): 96.8%
remaining activity at 0.2 µM ([3]; 0.2 µM 2015, read-out: STK25 residual activity): 88.2%
remaining activity at 1 µM ([3]; 1 µM 2015, read-out: STK25 residual activity): 83.6%
remaining activity at 0.2 µM ([3]; STK25, 0.2 µM, read-out: residual activity): 88.2%
remaining activity at 1 µM ([3]; STK25, 1 µM, read-out: residual activity): 83.6%
remaining activity at 0.2 µM ([4]; 0.2 µM 2015, read-out: PKN3 residual activity): 84.5%
remaining activity at 1 µM ([4]; 1 µM 2015, read-out: PKN3 residual activity): 95.6%
remaining activity at 0.2 µM ([4]; PKN3, 0.2 µM, read-out: residual activity): 84.5%
remaining activity at 1 µM ([4]; PKN3, 1 µM, read-out: residual activity): 95.6%
remaining activity at 0.2 µM ([5]; 0.2 µM 2015, read-out: PYK2 residual activity): 98.8%
remaining activity at 1 µM ([5]; 1 µM 2015, read-out: PYK2 residual activity): 86.1%
remaining activity at 0.2 µM ([5]; PYK2, 0.2 µM, read-out: residual activity): 98.8%
remaining activity at 1 µM ([5]; PYK2, 1 µM, read-out: residual activity): 86.1%
remaining activity at 0.2 µM ([6]; 0.2 µM 2015, read-out: GRK5 residual activity): 106%
remaining activity at 1 µM ([6]; 1 µM 2015, read-out: GRK5 residual activity): 114%
remaining activity at 0.2 µM ([6]; GRK5, 0.2 µM, read-out: residual activity): 106%
remaining activity at 1 µM ([6]; GRK5, 1 µM, read-out: residual activity): 114%
remaining activity at 0.2 µM ([7]; 0.2 µM 2015, read-out: ZAK residual activity): 110%
remaining activity at 1 µM ([7]; 1 µM 2015, read-out: ZAK residual activity): 104%
remaining activity at 0.2 µM ([7]; ZAK, 0.2 µM, read-out: residual activity): 110%
remaining activity at 1 µM ([7]; ZAK, 1 µM, read-out: residual activity): 104%
remaining activity at 0.2 µM ([8]; 0.2 µM 2015, read-out: RPS6KA4 residual activity): 95.3%
remaining activity at 1 µM ([8]; 1 µM 2015, read-out: RPS6KA4 residual activity): 89.4%
remaining activity at 0.2 µM ([8]; RPS6KA4, 0.2 µM, read-out: residual activity): 95.3%
remaining activity at 1 µM ([8]; RPS6KA4, 1 µM, read-out: residual activity): 89.4%
